Test systems include HS 578T breast; OVCAR-8 ovarian; K-562 leukemia; T-47D breast; PC-3 prostate; M14 melanoma; SW-620 colon; HCC-2998 colon; MALME-3M melanoma; HOP-92 NSCLC.
Holding throughout (experiment): growth of human tumour cells (NCI), 48 h

Structures are written as SMILES.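 1) Cells in 96-well plates. 2) Compound, 48 h, 5 concentrations. 3) Linear interpolation between surrounding doses. 4) Unreached endpoint = highest concentration. GI50 is the concentration that inhibits growth by half. TGI is the concentration that stops growth completely.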

On to `O=Cc1ccccc1B(O)O`, for which the TGI was 49.3 µM in the assay with HS 578T breast; greater than 100 µM with OVCAR-8 ovarian; greater than 100 µM with K-562 leukemia; 62.4 µM with T-47D breast; greater than 100 µM in the assay on PC-3 prostate; greater than 100 µM with M14 melanoma. Moreover, the TGI in the assay on SW-620 colon is greater than 100 µM.

`O=C(Nc1ccc2[nH]c(=S)sc2c1)Nc1ccccc1F`: the GI50 is 37.6 µM with HS 578T breast; 56.5 µM with OVCAR-8 ovarian; 28.6 µM in the assay on K-562 leukemia; 4.47 µM in the assay on T-47D breast; 30.6 µM in the assay with HCC-2998 colon; 21.5 µM in the assay with PC-3 prostate. Also, the GI50 with MALME-3M melanoma is 18.4 µM; in the assay with M14 melanoma it was 42400 nM; with SW-620 colon it was 43.1 µM. Also, the TGI in the assay with HS 578T breast is greater than 100 µM; in the assay with OVCAR-8 ovarian it was greater than 100 µM; in the assay with K-562 leukemia, greater than 100 µM; with T-47D breast, 33.4 µM; in the assay with HCC-2998 colon, greater than 100 µM; in the assay with PC-3 prostate it was greater than 100 µM. Moreover, the TGI in the assay with MALME-3M melanoma was 64.2 µM; in the assay with M14 melanoma it was greater than 100 µM; with SW-620 colon, greater than 100 µM.

Regarding `CN(C)CCCN1c2ccccc2C(C)(C)c2ccccc21`, the TGI with HS 578T breast came out at 43.3 µM; in the assay with OVCAR-8 ovarian, 29.8 µM; in the assay on K-562 leukemia, 27.1 µM; in the assay on HOP-92 NSCLC, 31.6 µM; in the assay on T-47D breast it was 38.7 µM; with PC-3 prostate, 26.6 µM. In addition, the TGI is 31 µM with MALME-3M melanoma, 28.8 µM with M14 melanoma and 52.4 µM in the assay on SW-620 colon.

For `COC(=O)C1CCCN1C(=O)[C@@H]1CCCN1C(=O)[C@H](Cc1c[nH]c2ccccc12)NC(=S)Nc1cc(C(F)(F)F)cc(C(F)(F)F)c1` (some centres undefined), the GI50 is 3.1 µM in the assay with HS 578T breast; 1.92 µM with OVCAR-8 ovarian; 2.92 µM in the assay on K-562 leukemia; 1.98 µM with T-47D breast; 1.96 µM in the assay on HCC-2998 colon; 1.91 µM with PC-3 prostate. For the same compound, the GI50 in the assay with MALME-3M melanoma was 3.35 µM; with M14 melanoma, 2190 nM; in the assay on SW-620 colon, 3.68 µM. The TGI with HS 578T breast came out at 11.4 µM; with OVCAR-8 ovarian it was 4.2 µM; in the assay with K-562 leukemia, 13.3 µM; in the assay on T-47D breast, 7.2 µM; in the assay with HCC-2998 colon, 4.5 µM; in the assay with PC-3 prostate, 5.32 µM. Also, the TGI in the assay on MALME-3M melanoma worked out at 12.7 µM; in the assay with M14 melanoma it was 5.23 µM; in the assay with SW-620 colon, 12.6 µM.

As to `COC(=O)C1=C(C(=O)OC)SC(=C(Cl)C(=S)Nc2ccccc2O)S1`, the GI50 in the assay with HS 578T breast was 31.6 µM; in the assay on OVCAR-8 ovarian, 25.3 µM; in the assay on K-562 leukemia it was 22.6 µM; in the assay with HOP-92 NSCLC, 40 µM; in the assay with T-47D breast it was 17 µM; in the assay on PC-3 prostate it was 22.2 µM. The results for the GI50 in the assay on MALME-3M melanoma, with M14 melanoma and in the assay with SW-620 colon were 21.7 µM, 352 nM and 26.4 µM, respectively. For the same compound, the TGI in the assay on HS 578T breast, in the assay on OVCAR-8 ovarian, with K-562 leukemia, with HOP-92 NSCLC, in the assay with T-47D breast and in the assay on PC-3 prostate was greater than 50 µM throughout. Moreover, the values for the TGI with MALME-3M melanoma, in the assay with M14 melanoma and in the assay with SW-620 colon were greater than 50 µM, 12.7 µM and greater than 50 µM, respectively.

For the compound `Clc1ccc2nnnn2n1`, the GI50 in the assay with HS 578T breast was 21.8 µM; in the assay on OVCAR-8 ovarian, 5.22 µM; in the assay with K-562 leukemia, 2.77 µM; in the assay on HOP-92 NSCLC, 4.15 µM; with T-47D breast, 6.25 µM; with HCC-2998 colon, 16.9 µM. Further, the figures for the GI50 in the assay with MALME-3M melanoma, with M14 melanoma and in the assay on SW-620 colon were 12.1 µM, 1980 nM and 3.88 µM, respectively. For the same compound, the TGI with HS 578T breast is greater than 100 µM; in the assay on OVCAR-8 ovarian, greater than 100 µM; in the assay on K-562 leukemia it was 17.4 µM; in the assay with HOP-92 NSCLC, 27 µM; with T-47D breast, 24 µM; in the assay with HCC-2998 colon, 40.6 µM. For the same compound, the TGI turned out to be 31.4 µM in the assay on MALME-3M melanoma, 6.26 µM in the assay with M14 melanoma and 22 µM in the assay with SW-620 colon.

As to `Cc1cc(Cc2cc(C)cc(C(C)(C)C)c2O)c(O)c(Cc2cc(C)cc(C(C)(C)C)c2O)c1`, the TGI in the assay with HS 578T breast was found to be 5.93 µM; in the assay with OVCAR-8 ovarian it was 15.1 µM; in the assay with K-562 leukemia, 6.33 µM; with HOP-92 NSCLC, 9.36 µM; with T-47D breast, 11.3 µM; in the assay on PC-3 prostate, 9.12 µM. In addition, the TGI in the assay on MALME-3M melanoma worked out at 5.13 µM; with M14 melanoma, 7.26 µM; in the assay on SW-620 colon, 16.7 µM.

As for `O=c1[nH]c(=O)c2cc(C3CC(O)C(CO)O3)ccc2[nH]1` (centres undefined), the GI50 in the assay on HS 578T breast, with OVCAR-8 ovarian, in the assay on K-562 leukemia, in the assay on HOP-92 NSCLC, in the assay on T-47D breast and in the assay with HCC-2998 colon was greater than 100 µM in each case. The GI50 in the assay on PC-3 prostate was greater than 100 µM; with M14 melanoma it was greater than 100000 nM; in the assay with SW-620 colon it was greater than 100 µM. For the same compound, the TGI in the assay with HS 578T breast, in the assay with OVCAR-8 ovarian, with K-562 leukemia, in the assay on HOP-92 NSCLC, in the assay with T-47D breast and in the assay on HCC-2998 colon was greater than 100 µM each time. Also, the TGI with PC-3 prostate, in the assay with M14 melanoma and in the assay with SW-620 colon was greater than 100 µM throughout.

In the case of `COc1ccc(S(=O)(=O)Nc2cc(/C=C\c3cc(OC)c(OC)c(OC)c3)ccc2OC)cc1`, the GI50 in the assay with HS 578T breast is 0.226 µM; in the assay on OVCAR-8 ovarian, 0.276 µM; with K-562 leukemia, 0.053 µM; with HOP-92 NSCLC it was 0.0974 µM; with HCC-2998 colon, 0.442 µM; in the assay on PC-3 prostate it was 0.124 µM. Moreover, the GI50 in the assay on MALME-3M melanoma is 0.0527 µM; in the assay with M14 melanoma, 103 nM; in the assay with SW-620 colon it was 0.0785 µM. The TGI is greater than 100 µM with HS 578T breast; greater than 100 µM in the assay on OVCAR-8 ovarian; greater than 100 µM with K-562 leukemia; 12 µM in the assay on HOP-92 NSCLC; greater than 100 µM in the assay with HCC-2998 colon; greater than 100 µM with PC-3 prostate. For the same compound, the figures for the TGI in the assay with MALME-3M melanoma, in the assay on M14 melanoma and in the assay on SW-620 colon were 61.1 µM, greater than 100 µM and greater than 100 µM, respectively.

For `O=S(=O)(c1cccc2c(Cl)cccc12)N1CCCNCC1`, the GI50 in the assay on HS 578T breast was 21.4 µM; in the assay with OVCAR-8 ovarian, 14.1 µM; with K-562 leukemia it was 12.7 µM; with HOP-92 NSCLC, 11 µM; with T-47D breast, 11.7 µM; in the assay with PC-3 prostate it was 13.8 µM. Besides, the GI50 in the assay with M14 melanoma is 12400 nM; with SW-620 colon it was 17.9 µM. For the same compound, the TGI was 45.4 µM in the assay on HS 578T breast; 31.4 µM in the assay with OVCAR-8 ovarian; 25.3 µM in the assay with K-562 leukemia; 25.8 µM in the assay on HOP-92 NSCLC; 29.4 µM with T-47D breast; 26.8 µM in the assay on PC-3 prostate. In addition, the figures for the TGI in the assay with M14 melanoma and in the assay on SW-620 colon were 24.9 µM and 31.8 µM, respectively.

These data come from PubChem BioAssay (NCI).
